Measurements from ChEMBL document CHEMBL4800724 (2021).
Values belong to the compound of their own block, whether it stands above or below them. Activity calls are given as the source filed them. No cut-off for these calls is given here.

How the values were obtained:
[1] = molecular target: Sodium-dependent serotonin transporter (Homo sapiens) (UniProt P31645); conditions: Compound concentration 10.0 uM
[2] = molecular target: Beta-3 adrenergic receptor (Homo sapiens) (UniProt P13945); conditions: Compound concentration 10.0 uM
[3] = molecular target: Ubiquitin carboxyl-terminal hydrolase isozyme L1 (Homo sapiens) (UniProt P09936); experiment: UCHL1 activity based protein profiling assay (ABPP)
[4] = molecular target: Histamine H4 receptor (Homo sapiens) (UniProt Q9H3N8); conditions: Compound concentration 10.0 uM
[5] = molecular target: Beta-2 adrenergic receptor (Homo sapiens) (UniProt P07550); conditions: Compound concentration 10.0 uM
Chain of Beta-2 adrenergic receptor (Homo sapiens) (P07550 whole entry, looked up): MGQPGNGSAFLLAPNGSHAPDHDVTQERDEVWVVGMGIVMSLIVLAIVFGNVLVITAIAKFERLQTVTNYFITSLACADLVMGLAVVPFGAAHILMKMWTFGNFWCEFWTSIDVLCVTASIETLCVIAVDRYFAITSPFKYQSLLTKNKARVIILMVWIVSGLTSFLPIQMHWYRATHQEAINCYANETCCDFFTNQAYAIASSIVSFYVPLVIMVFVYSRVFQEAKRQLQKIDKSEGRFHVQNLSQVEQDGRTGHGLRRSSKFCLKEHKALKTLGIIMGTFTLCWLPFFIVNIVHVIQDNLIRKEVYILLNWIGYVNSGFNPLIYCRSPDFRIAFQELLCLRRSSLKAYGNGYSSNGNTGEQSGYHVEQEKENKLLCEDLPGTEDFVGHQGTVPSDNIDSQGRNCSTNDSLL

[6] = molecular target: 5-hydroxytryptamine receptor 2A (Homo sapiens) (UniProt P28223); conditions: Compound concentration 10.0 uM
[7] = molecular target: 5-hydroxytryptamine receptor 2B (Homo sapiens) (UniProt P41595); conditions: Compound concentration 10.0 uM
Chain of 5-hydroxytryptamine receptor 2B (Homo sapiens) (P41595 whole entry): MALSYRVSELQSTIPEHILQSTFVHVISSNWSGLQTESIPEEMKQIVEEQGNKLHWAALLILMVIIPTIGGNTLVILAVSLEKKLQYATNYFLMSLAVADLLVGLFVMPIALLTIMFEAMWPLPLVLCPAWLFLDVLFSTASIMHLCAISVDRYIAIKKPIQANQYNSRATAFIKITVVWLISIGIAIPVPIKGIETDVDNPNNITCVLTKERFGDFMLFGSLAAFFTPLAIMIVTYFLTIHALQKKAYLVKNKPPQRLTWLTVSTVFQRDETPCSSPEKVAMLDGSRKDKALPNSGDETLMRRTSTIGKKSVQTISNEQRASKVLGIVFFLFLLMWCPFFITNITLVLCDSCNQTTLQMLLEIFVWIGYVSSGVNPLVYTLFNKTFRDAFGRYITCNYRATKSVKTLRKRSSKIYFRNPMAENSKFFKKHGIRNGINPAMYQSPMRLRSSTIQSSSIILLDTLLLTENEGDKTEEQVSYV

[8] = molecular target: 5-hydroxytryptamine receptor 3A (Homo sapiens) (UniProt P46098); conditions: Compound concentration 10.0 uM
[9] = molecular target: 5-hydroxytryptamine receptor 1E (Homo sapiens) (UniProt P28566); conditions: Compound concentration 10.0 uM
Chain of 5-hydroxytryptamine receptor 1E (Homo sapiens) (P28566 whole entry): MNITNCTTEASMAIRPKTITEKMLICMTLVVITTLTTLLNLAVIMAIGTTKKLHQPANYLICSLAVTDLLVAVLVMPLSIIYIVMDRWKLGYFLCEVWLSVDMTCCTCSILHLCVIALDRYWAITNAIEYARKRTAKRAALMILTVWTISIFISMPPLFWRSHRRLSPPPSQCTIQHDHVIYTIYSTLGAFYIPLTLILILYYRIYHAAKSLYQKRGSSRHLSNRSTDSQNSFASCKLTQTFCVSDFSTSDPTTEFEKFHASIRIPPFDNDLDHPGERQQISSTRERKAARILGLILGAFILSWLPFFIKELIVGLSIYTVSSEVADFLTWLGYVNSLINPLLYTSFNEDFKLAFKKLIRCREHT

[10] = molecular target: Sodium-dependent noradrenaline transporter (Homo sapiens) (UniProt P23975); conditions: Compound concentration 10.0 uM
Chain of Sodium-dependent noradrenaline transporter (Homo sapiens) (P23975 whole entry): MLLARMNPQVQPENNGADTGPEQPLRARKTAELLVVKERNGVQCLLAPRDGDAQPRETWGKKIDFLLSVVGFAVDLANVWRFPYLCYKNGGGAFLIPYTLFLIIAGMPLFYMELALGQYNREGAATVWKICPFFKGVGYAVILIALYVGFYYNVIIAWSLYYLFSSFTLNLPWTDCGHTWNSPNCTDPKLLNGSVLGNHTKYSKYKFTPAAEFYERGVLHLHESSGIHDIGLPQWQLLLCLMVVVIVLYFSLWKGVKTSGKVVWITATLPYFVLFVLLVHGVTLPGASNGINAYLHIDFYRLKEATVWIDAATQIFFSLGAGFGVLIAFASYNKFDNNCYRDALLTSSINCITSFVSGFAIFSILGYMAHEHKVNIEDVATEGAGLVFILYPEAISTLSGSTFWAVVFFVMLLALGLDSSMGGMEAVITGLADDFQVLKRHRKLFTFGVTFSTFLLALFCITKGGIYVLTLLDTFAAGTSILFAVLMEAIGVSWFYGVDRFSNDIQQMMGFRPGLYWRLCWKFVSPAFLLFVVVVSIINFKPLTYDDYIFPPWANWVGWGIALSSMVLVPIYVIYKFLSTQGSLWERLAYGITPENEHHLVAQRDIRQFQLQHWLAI

[11] = molecular target: D(2) dopamine receptor (Homo sapiens) (UniProt P14416); conditions: Compound concentration 10.0 uM
Rattus norvegicus = species on record: Rattus norvegicus; conditions: Compound concentration 10.0 uM
[12] = molecular target: 5-hydroxytryptamine receptor 6 (Homo sapiens) (UniProt P50406); conditions: Compound concentration 10.0 uM
[13] = molecular target: D(1B) dopamine receptor (Homo sapiens) (UniProt P21918); conditions: Compound concentration 10.0 uM
[14] = molecular target: Muscarinic acetylcholine receptor M1 (Homo sapiens) (UniProt P11229); conditions: Compound concentration 10.0 uM
[15] = molecular target: 5-hydroxytryptamine receptor 7 (Homo sapiens) (UniProt P34969); conditions: Compound concentration 10.0 uM
[16] = molecular target: 5-hydroxytryptamine receptor 5A (Homo sapiens) (UniProt P47898); conditions: Compound concentration 10.0 uM
Chain of 5-hydroxytryptamine receptor 5A (Homo sapiens) (P47898 whole entry): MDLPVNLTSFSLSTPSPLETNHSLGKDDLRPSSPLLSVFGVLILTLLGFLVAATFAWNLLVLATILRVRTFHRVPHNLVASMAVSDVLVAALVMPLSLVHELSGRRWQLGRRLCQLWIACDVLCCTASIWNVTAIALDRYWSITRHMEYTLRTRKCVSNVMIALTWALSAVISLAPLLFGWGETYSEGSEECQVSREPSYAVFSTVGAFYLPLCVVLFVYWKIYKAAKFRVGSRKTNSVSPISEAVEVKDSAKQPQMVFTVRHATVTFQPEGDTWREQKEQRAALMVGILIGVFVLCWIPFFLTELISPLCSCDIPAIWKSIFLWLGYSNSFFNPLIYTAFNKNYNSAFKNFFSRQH

[17] = molecular target: Muscarinic acetylcholine receptor M3 (Homo sapiens) (UniProt P20309); conditions: Compound concentration 10.0 uM
[18] = molecular target: 5-hydroxytryptamine receptor 1B (Homo sapiens) (UniProt P28222); conditions: Compound concentration 10.0 uM
[19] = molecular target: Alpha-1A adrenergic receptor (Homo sapiens) (UniProt P35348); conditions: Compound concentration 10.0 uM
[20] = molecular target: 5-hydroxytryptamine receptor 1A (Homo sapiens) (UniProt P08908); conditions: Compound concentration 10.0 uM
[21] = molecular target: T1, GABA-A receptor; anion channel (Rattus norvegicus) (UniProt O09028+P15431+P18506+P18508+P19969+P20236+P23574+P23576+P28471+P28473+P30191+P62813+P63079+P63138+Q91ZM7+Q9ES14); conditions: Compound concentration 10.0 uM
[22] = molecular target: T2, Sigma non-opioid intracellular receptor 1 (Homo sapiens, UniProt Q99720); experiment: GPCRScan assay: inhibition of Sigma 1; design: radioligand conc. used [nm] 4.0 – 5.0, parental cells HEKT
T2 sequence (Q99720 whole entry): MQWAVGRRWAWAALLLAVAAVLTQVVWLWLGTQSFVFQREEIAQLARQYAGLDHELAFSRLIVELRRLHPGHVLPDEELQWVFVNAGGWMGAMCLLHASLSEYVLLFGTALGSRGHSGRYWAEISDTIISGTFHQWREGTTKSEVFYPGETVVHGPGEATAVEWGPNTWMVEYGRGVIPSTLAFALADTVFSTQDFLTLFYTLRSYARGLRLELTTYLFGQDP

[23] = molecular target: D(4) dopamine receptor (Homo sapiens) (UniProt P21917); conditions: Compound concentration 10.0 uM
[24] = molecular target: Muscarinic acetylcholine receptor M2 (Homo sapiens) (UniProt P08172); conditions: Compound concentration 10.0 uM
[25] = molecular target: Alpha-2C adrenergic receptor (Homo sapiens) (UniProt P18825); conditions: Compound concentration 10.0 uM
[26] = molecular target: Mu-type opioid receptor (Homo sapiens) (UniProt P35372); conditions: Compound concentration 10.0 uM
[27] = molecular target: Delta-type opioid receptor (Homo sapiens) (UniProt P41143); conditions: Compound concentration 10.0 uM
Chain of Delta-type opioid receptor (Homo sapiens) (P41143 whole entry): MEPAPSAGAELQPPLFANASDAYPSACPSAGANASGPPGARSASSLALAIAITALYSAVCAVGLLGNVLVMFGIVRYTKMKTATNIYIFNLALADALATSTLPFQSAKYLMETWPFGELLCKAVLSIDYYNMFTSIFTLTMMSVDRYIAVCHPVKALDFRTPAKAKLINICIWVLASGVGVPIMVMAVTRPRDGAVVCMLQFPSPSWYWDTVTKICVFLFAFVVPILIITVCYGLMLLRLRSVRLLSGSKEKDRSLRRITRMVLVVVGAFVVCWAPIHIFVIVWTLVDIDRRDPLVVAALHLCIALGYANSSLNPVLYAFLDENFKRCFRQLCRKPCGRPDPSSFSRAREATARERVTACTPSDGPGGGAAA

[28] = molecular target: 5-hydroxytryptamine receptor 1D (Homo sapiens) (UniProt P28221); conditions: Compound concentration 10.0 uM
Chain of 5-hydroxytryptamine receptor 1D (Homo sapiens) (P28221 whole entry): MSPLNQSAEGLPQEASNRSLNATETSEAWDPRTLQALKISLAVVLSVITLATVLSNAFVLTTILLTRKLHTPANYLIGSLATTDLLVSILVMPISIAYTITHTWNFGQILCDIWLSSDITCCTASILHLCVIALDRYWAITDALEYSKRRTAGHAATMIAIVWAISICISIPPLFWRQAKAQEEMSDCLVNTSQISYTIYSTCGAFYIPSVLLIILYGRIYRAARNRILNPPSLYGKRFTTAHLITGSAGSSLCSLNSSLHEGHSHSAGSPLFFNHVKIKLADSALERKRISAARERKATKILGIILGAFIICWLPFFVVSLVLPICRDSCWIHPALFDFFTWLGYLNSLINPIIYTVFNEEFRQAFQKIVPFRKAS

[29] = molecular target: Alpha-2B adrenergic receptor (Homo sapiens) (UniProt P18089); conditions: Compound concentration 10.0 uM
[30] = molecular target: D(3) dopamine receptor (Homo sapiens) (UniProt P35462); conditions: Compound concentration 10.0 uM
[31] = molecular target: T3, Sodium-dependent dopamine transporter (Homo sapiens, UniProt Q01959); conditions: Compound concentration 10.0 uM
T3 sequence (Q01959 whole entry): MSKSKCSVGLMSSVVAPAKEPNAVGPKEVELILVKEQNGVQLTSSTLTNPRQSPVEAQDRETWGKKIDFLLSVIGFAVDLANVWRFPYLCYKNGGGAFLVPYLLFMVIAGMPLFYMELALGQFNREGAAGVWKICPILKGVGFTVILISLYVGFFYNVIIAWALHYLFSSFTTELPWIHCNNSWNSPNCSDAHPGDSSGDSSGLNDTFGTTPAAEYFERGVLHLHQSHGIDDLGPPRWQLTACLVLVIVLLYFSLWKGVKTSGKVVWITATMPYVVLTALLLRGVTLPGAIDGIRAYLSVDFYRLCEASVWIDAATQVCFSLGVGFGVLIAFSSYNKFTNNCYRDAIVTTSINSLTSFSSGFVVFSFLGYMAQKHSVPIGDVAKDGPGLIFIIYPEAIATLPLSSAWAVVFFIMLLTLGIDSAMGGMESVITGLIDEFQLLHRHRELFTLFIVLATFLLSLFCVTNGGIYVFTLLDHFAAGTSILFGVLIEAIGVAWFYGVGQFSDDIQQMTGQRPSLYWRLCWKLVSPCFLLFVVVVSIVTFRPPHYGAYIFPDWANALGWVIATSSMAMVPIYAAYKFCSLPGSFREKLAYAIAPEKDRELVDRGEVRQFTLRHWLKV

[32] = molecular target: T1, GABA-A receptor; anion channel (Rattus norvegicus); conditions: Compound concentration 10.0 uM; remark: listed apart in the source
[33] = molecular target: Histamine H1 receptor (Homo sapiens) (UniProt P35367); conditions: Compound concentration 10.0 uM
[34] = molecular target: T2, Sigma non-opioid intracellular receptor 1; conditions: Compound concentration 10.0 uM
[35] = molecular target: Mitogen-activated protein kinase 14 (Homo sapiens, UniProt Q16539); experiment: NanoBRET (SGC Frankfurt) (MAPK14)
[36] = molecular target: Kappa-type opioid receptor (Homo sapiens) (UniProt P41145); conditions: Compound concentration 10.0 uM
[37] = molecular target: Beta-1 adrenergic receptor (Homo sapiens) (UniProt P08588); conditions: Compound concentration 10.0 uM
[38] = molecular target: Alpha-1D adrenergic receptor (Homo sapiens) (UniProt P25100); conditions: Compound concentration 10.0 uM
[39] = molecular target: Sigma intracellular receptor 2 (Homo sapiens) (UniProt Q5BJF2); conditions: Compound concentration 10.0 uM
[40] = molecular target: Muscarinic acetylcholine receptor M4 (Homo sapiens) (UniProt P08173); conditions: Compound concentration 10.0 uM
Chain of Muscarinic acetylcholine receptor M4 (Homo sapiens) (P08173 whole entry): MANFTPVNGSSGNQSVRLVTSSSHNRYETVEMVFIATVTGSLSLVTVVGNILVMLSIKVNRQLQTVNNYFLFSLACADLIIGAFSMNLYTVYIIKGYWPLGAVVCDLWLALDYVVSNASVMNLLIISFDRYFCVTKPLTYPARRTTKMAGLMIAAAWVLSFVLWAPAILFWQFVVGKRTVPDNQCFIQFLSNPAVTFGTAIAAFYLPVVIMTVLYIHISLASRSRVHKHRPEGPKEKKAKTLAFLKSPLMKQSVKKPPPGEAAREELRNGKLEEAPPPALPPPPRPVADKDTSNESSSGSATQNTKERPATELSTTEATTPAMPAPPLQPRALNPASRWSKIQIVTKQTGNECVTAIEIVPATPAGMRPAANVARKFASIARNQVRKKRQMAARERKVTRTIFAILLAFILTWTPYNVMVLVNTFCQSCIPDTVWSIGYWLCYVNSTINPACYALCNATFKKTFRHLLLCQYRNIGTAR

[41] = molecular target: Histamine H3 receptor (Homo sapiens) (UniProt Q9Y5N1); conditions: Compound concentration 10.0 uM
[42] = molecular target: Histamine H2 receptor (Homo sapiens) (UniProt P25021); conditions: Compound concentration 10.0 uM
[43] = molecular target: 5-hydroxytryptamine receptor 2C (Homo sapiens) (UniProt P28335); conditions: Compound concentration 10.0 uM
[44] = molecular target: Alpha-2A adrenergic receptor (Homo sapiens, UniProt P08913); experiment: GPCRScan assay: inhibition of Alpha2A; design: radioligand conc. used [nm] 1.0 – 3.0, parental cells stable MDCK
[45] = molecular target: Muscarinic acetylcholine receptor M5 (Homo sapiens) (UniProt P08912); conditions: Compound concentration 10.0 uM
[46] = molecular target: Alpha-2A adrenergic receptor (Homo sapiens) (UniProt P08913); conditions: Compound concentration 10.0 uM
[47] = molecular target: Alpha-1B adrenergic receptor (Homo sapiens) (UniProt P35368); conditions: Compound concentration 10.0 uM
[48] = molecular target: D(1A) dopamine receptor (Homo sapiens) (UniProt P21728); conditions: Compound concentration 10.0 uM
[49] = molecular target: Ubiquitin carboxyl-terminal hydrolase isozyme L1 (Homo sapiens, UniProt P09936); experiment: UCHL1 inhibition assay with Ub-Rho-morpholine as substrate
[50] = molecular target: T3, Sodium-dependent dopamine transporter; experiment: GPCRScan assay: inhibition of DAT; design: radioligand conc. used [nm] 3.6 – 16.0, parental cells stable HEK

Chain of Sodium-dependent serotonin transporter (Homo sapiens) (P31645 whole entry, looked up): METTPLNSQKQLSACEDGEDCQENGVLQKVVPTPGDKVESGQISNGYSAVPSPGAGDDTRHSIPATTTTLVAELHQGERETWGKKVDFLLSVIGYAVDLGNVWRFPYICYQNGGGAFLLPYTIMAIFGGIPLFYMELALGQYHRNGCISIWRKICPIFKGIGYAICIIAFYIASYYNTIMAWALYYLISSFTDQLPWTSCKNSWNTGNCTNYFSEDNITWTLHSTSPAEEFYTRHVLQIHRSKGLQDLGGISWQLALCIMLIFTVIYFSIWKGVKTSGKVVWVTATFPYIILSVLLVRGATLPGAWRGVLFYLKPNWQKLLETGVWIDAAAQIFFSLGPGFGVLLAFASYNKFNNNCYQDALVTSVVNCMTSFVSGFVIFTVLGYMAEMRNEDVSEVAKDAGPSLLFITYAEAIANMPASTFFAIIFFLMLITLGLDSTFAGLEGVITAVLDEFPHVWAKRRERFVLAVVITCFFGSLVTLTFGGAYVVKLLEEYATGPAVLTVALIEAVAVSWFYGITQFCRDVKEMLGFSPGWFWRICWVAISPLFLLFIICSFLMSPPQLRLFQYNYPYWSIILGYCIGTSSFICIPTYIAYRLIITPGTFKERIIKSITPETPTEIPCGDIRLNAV

inhibition [1]: 2.49%
inhibition [2]: -3.31%
Full inhibition [3]: 3 µM
inhibition [4]: 5.77%
inhibition [5]: -0.7%
inhibition [6]: 30%
inhibition [7]: 5.22%
inhibition [8]: 2.31%
inhibition [9]: 2.35%
inhibition [10]: 2.61%
inhibition [11]: 0.55%
inhibition (Rattus norvegicus): 21.9%
inhibition [12]: 9.94%
inhibition [13]: 7.55%
inhibition [14]: 7.58%
inhibition [15]: -0.16%
inhibition [16]: 11.8%
inhibition [17]: -1.04%
inhibition [18]: 1.57%
inhibition [19]: 11.2%
inhibition [20]: 7.61%
inhibition [21]: -2.35%
Ki ([22]; read-out: Ki): 3.43 µM
Ki ([22]; read-out: pKi (converted)): 3.39 µM
inhibition [23]: 4.26%
inhibition [24]: -0.45%
inhibition [25]: 14.7%
inhibition [26]: 12.6%
inhibition [27]: 8.43%
inhibition [28]: -0.37%
inhibition [29]: -1.02%
inhibition [30]: -2.14%
inhibition [31]: -2.33%
inhibition [32]: -1.06%
inhibition [33]: 7.45%
inhibition [34]: 69%
IC50 [35]: 0.32 µM (active)
inhibition [36]: 0.19%
inhibition [37]: -7.19%
inhibition [38]: 12.2%
inhibition [39]: -1.19%
inhibition [40]: 4.84%
inhibition [41]: -5.98%
inhibition [42]: 0.58%
inhibition [43]: 18.2%
SMILES: N#CN1CC[C@H](C(=O)Nc2nc3c(s2)CN(C(=O)CN=[N+]=[N-])CC3)C1 [8RK64]

inhibition [1]: 7.66%
Ki [44]: > 10 µM
pKi [44]: < 5
inhibition [5]: -8.12%
inhibition [6]: 3.66%
inhibition [7]: 5.55%
inhibition [8]: 0.95%
inhibition [9]: 6.5%
inhibition [10]: 3.51%
inhibition [11]: 4.82%
inhibition (Rattus norvegicus): 5.64%
inhibition [12]: 8.14%
inhibition [14]: 24.4%
inhibition [45]: 2.94%
inhibition [15]: -1.05%
inhibition [16]: 9.64%
inhibition [46]: 50.7%
inhibition [17]: -2.15%
inhibition [18]: 6.13%
inhibition [19]: 3.73%
inhibition [20]: 12.1%
inhibition [47]: -7.5%
inhibition [21]: 28.7%
inhibition [23]: 5.53%
inhibition [48]: 8.27%
inhibition [25]: 4.21%
inhibition [26]: 18.7%
inhibition [27]: 4.07%
inhibition [28]: 20.9%
IC50 [49]: 12.9 µM (not active)
inhibition [29]: 6.46%
inhibition [31]: 83%
inhibition [32]: 34.2%
inhibition [33]: 0.43%
inhibition [34]: 6.56%
inhibition [36]: 13.3%
inhibition [37]: 3.17%
inhibition [38]: 0.34%
Ki [50]: > 10 µM
pKi [50]: < 5
inhibition [40]: -1.43%
inhibition [41]: -2.11%
inhibition [42]: 3.43%
inhibition [43]: 6.22%
SMILES: N#CN1CC[C@@H](C(=O)Nc2nc3c(s2)CN(C(=O)CN=[N+]=[N-])CC3)C1 [JYQ88]
